Test results published in publication PMC11157767 (Molecular Cancer, 2024).

System: TRIM24-MET-i cells
Experimental: The number of unique and shared differentially expressed genes between each comparison are shown in parentheses. A linear regression line is depicted along with Pearson’s correlation coefficient (r) and its associated p-value. […] Common negatively enriched genesets between all three comparisons are in bold. c, Heatmaps showing expression of Hallmark_Myc_Target_v1/2 genes for indicated cells and treatment comparisons (TRIM-MET cells were treated in vitro, TFG-MET cells in vivo). Select leading edge genes from GSEA are labeled.

C[C@@H](Oc1cc(-c2cnn(C3CCNCC3)c2)cnc1N)c1c(Cl)ccc(F)c1Cl [Crizotinib]
ES GOMF_CATALYTIC_ACTIVITY_ACTING_ON_A_TRNA: -0.6982
ES GOMF_GTPASE_ACTIVITY: -0.4838
ES GOMF_GUANYL_NUCLEOTIDE_BINDING: -0.4485
ES GOMF_HYDROLASE_ACTIVITY_ACTING_ON_ACID_ANHYDRIDES: -0.386
ES GOMF_RRNA_BINDING: -0.7423
NES GOMF_CATALYTIC_ACTIVITY_ACTING_ON_A_TRNA: -2.2819
NES GOMF_GTPASE_ACTIVITY: -1.922
NES GOMF_GUANYL_NUCLEOTIDE_BINDING: -1.812
NES GOMF_HYDROLASE_ACTIVITY_ACTING_ON_ACID_ANHYDRIDES: -1.664
NES GOMF_RRNA_BINDING: -2.231
ES GARY_CD5_TARGETS_DN (GSEA v. DMSO): -0.652
ES HALLMARK_ADIPOGENESIS (GSEA v. DMSO): -0.2603
ES HALLMARK_ALLOGRAFT_REJECTION (GSEA v. DMSO): -0.4058
ES HALLMARK_ANDROGEN_RESPONSE (GSEA v. DMSO): -0.4828
ES HALLMARK_ANGIOGENESIS (GSEA v. DMSO): -0.5624
ES HALLMARK_APICAL_JUNCTION (GSEA v. DMSO): -0.293
ES HALLMARK_APICAL_SURFACE (GSEA v. DMSO): 0.4986
ES HALLMARK_APOPTOSIS (GSEA v. DMSO): -0.4398
ES HALLMARK_CHOLESTEROL_HOMEOSTASIS (GSEA v. DMSO): 0.2795
ES HALLMARK_COAGULATION (GSEA v. DMSO): -0.4513
ES HALLMARK_COMPLEMENT (GSEA v. DMSO): -0.5126
ES HALLMARK_DNA_REPAIR (GSEA v. DMSO): -0.2541
ES HALLMARK_E2F_TARGETS (GSEA v. DMSO): -0.2746
ES HALLMARK_EPITHELIAL_MESENCHYMAL_TRANSITION (GSEA v. DMSO): -0.3755
ES HALLMARK_ESTROGEN_RESPONSE_EARLY (GSEA v. DMSO): -0.4277
ES HALLMARK_ESTROGEN_RESPONSE_LATE (GSEA v. DMSO): -0.3421
ES HALLMARK_G2M_CHECKPOINT (GSEA v. DMSO): -0.3012
ES HALLMARK_GLYCOLYSIS (GSEA v. DMSO): -0.404
ES HALLMARK_HEDGEHOG_SIGNALING (GSEA v. DMSO): -0.4466
ES HALLMARK_HYPOXIA (GSEA v. DMSO): -0.3351
ES HALLMARK_IL2_STAT5_SIGNALING (GSEA v. DMSO): -0.5189
ES HALLMARK_IL6_JAK_STAT3_SIGNALING (GSEA v. DMSO): -0.4268
ES HALLMARK_INFLAMMATORY_RESPONSE (GSEA v. DMSO): -0.4921
ES HALLMARK_INTERFERON_ALPHA_RESPONSE (GSEA v. DMSO): 0.2583
ES HALLMARK_INTERFERON_GAMMA_RESPONSE (GSEA v. DMSO): -0.3093
ES HALLMARK_KRAS_SIGNALING_DN (GSEA v. DMSO): 0.3288
ES HALLMARK_KRAS_SIGNALING_UP (GSEA v. DMSO): -0.4922
ES HALLMARK_MITOTIC_SPINDLE (GSEA v. DMSO): -0.2568
ES HALLMARK_MTORC1_SIGNALING (GSEA v. DMSO): -0.5236
ES HALLMARK_MYC_TARGETS_V1 (GSEA v. DMSO): -0.6267
ES HALLMARK_MYC_TARGETS_V2 (GSEA v. DMSO): -0.805
ES HALLMARK_MYOGENESIS (GSEA v. DMSO): -0.2282
ES HALLMARK_NOTCH_SIGNALING (GSEA v. DMSO): -0.4408
ES HALLMARK_OXIDATIVE_PHOSPHORYLATION (GSEA v. DMSO): -0.4296
ES HALLMARK_P53_PATHWAY (GSEA v. DMSO): -0.2784
ES HALLMARK_PANCREAS_BETA_CELLS (GSEA v. DMSO): 0.2429
ES HALLMARK_PEROXISOME (GSEA v. DMSO): 0.273
ES HALLMARK_PI3K_AKT_MTOR_SIGNALING (GSEA v. DMSO): -0.3625
ES HALLMARK_PROTEIN_SECRETION (GSEA v. DMSO): -0.4081
ES HALLMARK_TGF_BETA_SIGNALING (GSEA v. DMSO): -0.5775
ES HALLMARK_TNFA_SIGNALING_VIA_NFKB (GSEA v. DMSO): -0.5914
ES HALLMARK_UNFOLDED_PROTEIN_RESPONSE (GSEA v. DMSO): -0.6237
ES HALLMARK_UV_RESPONSE_DN (GSEA v. DMSO): -0.3089
ES HALLMARK_UV_RESPONSE_UP (GSEA v. DMSO): -0.4076
ES HALLMARK_WNT_BETA_CATENIN_SIGNALING (GSEA v. DMSO): -0.3432
ES KRIGE_RESPONSE_TO_TOSEDOSTAT_6HR_DN (GSEA v. DMSO): -0.6237
ES KRIGE_RESPONSE_TO_TOSEDOSTAT_24HR_DN (GSEA v. DMSO): -0.6444
ES LEE_BMP2_TARGETS_DN (GSEA v. DMSO): -0.6669
ES WEI_MYCN_TARGETS_WITH_E_BOX (GSEA v. DMSO): -0.6994
NES GARY_CD5_TARGETS_DN (GSEA v. DMSO): -2.697
NES HALLMARK_ADIPOGENESIS (GSEA v. DMSO): -0.9905
NES HALLMARK_ALLOGRAFT_REJECTION (GSEA v. DMSO): -1.519
NES HALLMARK_ANDROGEN_RESPONSE (GSEA v. DMSO): -1.666
NES HALLMARK_ANGIOGENESIS (GSEA v. DMSO): -1.626
NES HALLMARK_APICAL_JUNCTION (GSEA v. DMSO): -1.114
NES HALLMARK_APICAL_SURFACE (GSEA v. DMSO): 1.572
NES HALLMARK_APOPTOSIS (GSEA v. DMSO): -1.646
NES HALLMARK_CHOLESTEROL_HOMEOSTASIS (GSEA v. DMSO): 0.993
NES HALLMARK_COAGULATION (GSEA v. DMSO): -1.59
NES HALLMARK_COMPLEMENT (GSEA v. DMSO): -1.9374
NES HALLMARK_DNA_REPAIR (GSEA v. DMSO): -0.9367
NES HALLMARK_E2F_TARGETS (GSEA v. DMSO): -1.051
NES HALLMARK_EPITHELIAL_MESENCHYMAL_TRANSITION (GSEA v. DMSO): -1.427
NES HALLMARK_ESTROGEN_RESPONSE_EARLY (GSEA v. DMSO): -1.626
NES HALLMARK_ESTROGEN_RESPONSE_LATE (GSEA v. DMSO): -1.298
NES HALLMARK_G2M_CHECKPOINT (GSEA v. DMSO): -1.145
NES HALLMARK_GLYCOLYSIS (GSEA v. DMSO): -1.5363
NES HALLMARK_HEDGEHOG_SIGNALING (GSEA v. DMSO): -1.301
NES HALLMARK_HYPOXIA (GSEA v. DMSO): -1.274
NES HALLMARK_IL2_STAT5_SIGNALING (GSEA v. DMSO): -1.973
NES HALLMARK_IL6_JAK_STAT3_SIGNALING (GSEA v. DMSO): -1.432
NES HALLMARK_INFLAMMATORY_RESPONSE (GSEA v. DMSO): -1.856
NES HALLMARK_INTERFERON_ALPHA_RESPONSE (GSEA v. DMSO): 0.9765
NES HALLMARK_INTERFERON_GAMMA_RESPONSE (GSEA v. DMSO): -1.175
NES HALLMARK_KRAS_SIGNALING_DN (GSEA v. DMSO): 1.322
NES HALLMARK_KRAS_SIGNALING_UP (GSEA v. DMSO): -1.8648
NES HALLMARK_MITOTIC_SPINDLE (GSEA v. DMSO): -0.9855
NES HALLMARK_MTORC1_SIGNALING (GSEA v. DMSO): -2.004
NES HALLMARK_MYC_TARGETS_V1 (GSEA v. DMSO): -2.398
NES HALLMARK_MYC_TARGETS_V2 (GSEA v. DMSO): -2.6016
NES HALLMARK_MYOGENESIS (GSEA v. DMSO): -0.867
NES HALLMARK_NOTCH_SIGNALING (GSEA v. DMSO): -1.2742
NES HALLMARK_OXIDATIVE_PHOSPHORYLATION (GSEA v. DMSO): -1.635
NES HALLMARK_P53_PATHWAY (GSEA v. DMSO): -1.06
NES HALLMARK_PANCREAS_BETA_CELLS (GSEA v. DMSO): 0.7197
NES HALLMARK_PEROXISOME (GSEA v. DMSO): 1.047
NES HALLMARK_PI3K_AKT_MTOR_SIGNALING (GSEA v. DMSO): -1.259
NES HALLMARK_PROTEIN_SECRETION (GSEA v. DMSO): -1.414
NES HALLMARK_TGF_BETA_SIGNALING (GSEA v. DMSO): -1.842
NES HALLMARK_TNFA_SIGNALING_VIA_NFKB (GSEA v. DMSO): -2.258
NES HALLMARK_UNFOLDED_PROTEIN_RESPONSE (GSEA v. DMSO): -2.204
NES HALLMARK_UV_RESPONSE_DN (GSEA v. DMSO): -1.132
NES HALLMARK_UV_RESPONSE_UP (GSEA v. DMSO): -1.522
NES HALLMARK_WNT_BETA_CATENIN_SIGNALING (GSEA v. DMSO): -1.0353
NES KRIGE_RESPONSE_TO_TOSEDOSTAT_6HR_DN (GSEA v. DMSO): -2.692
NES KRIGE_RESPONSE_TO_TOSEDOSTAT_24HR_DN (GSEA v. DMSO): -2.791
NES LEE_BMP2_TARGETS_DN (GSEA v. DMSO): -2.874
NES WEI_MYCN_TARGETS_WITH_E_BOX (GSEA v. DMSO): -3.001
ES GOBP_NCRNA_PROCESSING (GSEA, v. DMSO): -0.7604
ES GOBP_RIBONUCLEOPROTEIN_COMPLEX_BIOGENESIS (GSEA, v. DMSO): -0.7216
ES GOBP_RIBOSOME_BIOGENESIS (GSEA, v. DMSO): -0.7916
